Data reported in US6872574B2, “Proteomic analysis” (The Scripps Research Institute, priority 2000, dated 2005).

Assays:
rat testis proteome = format: binding
cALDH-I [1] = target: T1, cALDH-I (Rattus norvegicus, UniProt P51647); format: binding
T1 construct: made in house; host or cells: E. coli BL-21
T1 sequence (P51647 1-501): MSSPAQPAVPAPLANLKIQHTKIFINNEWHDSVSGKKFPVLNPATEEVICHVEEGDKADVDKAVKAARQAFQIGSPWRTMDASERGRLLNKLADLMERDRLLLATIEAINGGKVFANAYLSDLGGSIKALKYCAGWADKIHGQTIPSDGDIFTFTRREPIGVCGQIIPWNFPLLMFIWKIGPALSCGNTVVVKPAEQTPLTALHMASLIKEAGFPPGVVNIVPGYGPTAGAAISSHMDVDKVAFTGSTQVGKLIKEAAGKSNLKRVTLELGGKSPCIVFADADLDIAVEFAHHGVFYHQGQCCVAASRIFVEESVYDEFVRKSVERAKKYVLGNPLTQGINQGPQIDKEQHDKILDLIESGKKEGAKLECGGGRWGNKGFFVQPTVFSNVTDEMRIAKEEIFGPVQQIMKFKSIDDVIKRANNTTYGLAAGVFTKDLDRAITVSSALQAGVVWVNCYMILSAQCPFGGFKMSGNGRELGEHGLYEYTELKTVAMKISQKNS

cALDH-I [2] = target: T1, cALDH-I; assay: cALDH-I enzyme assay and inhibition studies; format: biochemical
Description: (§1) cALDH-I activity was determined at 25° C. in Tris buffer (20 mM Tris-HCl, pH 8, 100 mM NaCl). Purified cALDH-I (0.2 μM) was preincubated with 15 (2.5 μM-15 μM) in DMSO (30 μL, 3% total incubation vol) in a volume of 950 μL for 5 to 45 min. After preincubation of the enzyme with inhibitor, remaining catalytic activity was measured by adding NAD^+ (500 μM final concentration) and propionaldehyde (1 mM final concentration) in 50 μL of buffer. Production of NADH from the oxidation of propionaldehyde was monitored by measuring the change in absorbance at 340 nm for 2 min. In substrate competition assays, purified cALDH-I (0.2 μM) was preincubated with either NAD^+ (50 μM) or propionaldehyde (25 μM) and 10 μM of 15 for 10 minutes at 25° C. in a volume of 950 μL. Remaining catalytic activity was monitored as described above.

[3] = pH 8
[4] = substrate: CCC=O; assay: cALDH-I enzyme assay and inhibition studies; format: biochemical, rat; settings: other: His-tagged recombinant cALDH-I; pH 8.0; 25.0 °C
Description: as §1

serine hydrolases = format: binding, rat
trypsin = format: binding

CS(=O)(=O)OCCCCCCCCCC(=O)NCCCCCNC(=O)CCCCC1SCC2NC(=O)NC21 (stereo not drawn) [Sulfonate 5, 10-((Methylsulfonyl)oxo)-N-biotinamidopentyldecanamide]
nonspecific (heat-insensitive) proteome reactivity (rat testis proteome): significant additional reactivity with the preheated proteome

O=C(CCCCCCCCCOS(=O)(=O)c1cccs1)NCCCCCNC(=O)CCCCC1SCC2NC(=O)NC21 (stereo not drawn) [Sulfonate 11]
specific (heat-sensitive) proteome reactivity (rat testis proteome): reacted specifically with a 55 kDa protein, as well as two additional proteins

O=C(CCCCCCCCCOS(=O)(=O)c1cccc2cccnc12)NCCCCCNC(=O)CCCCC1SCC2NC(=O)NC21 (stereo not drawn) [Sulfonate 9, 10-((8-Quinolinesulfonyl)oxo)-N-biotinamidopentyldecanamide]
specific (heat-sensitive) proteome reactivity (rat testis proteome): reacted specifically with a 55 kDa protein, as well as two additional proteins

O=C(CCCCCCCCCOS(=O)(=O)c1ccccn1)NCCCCCNC(=O)CCCC[C@@H]1SC[C@@H]2NC(=O)N[C@@H]21 [Sulfonate 1, 10-((2-Pyridylsulfonyl)oxo)-N-biotinamidopentyldecanamide]
labeling of 55-kDa protein in cALDH-I-transfected cells (cALDH-I [1]): labeled strongly

CCCCCCCCOS(=O)(=O)c1ccccn1 [Sulfonate 15, 1-(2-Pyridylsulfonyl)oxo-octane]
average Kobs/[I] (cALDH-I [2]): (9.7+1.8)×10^3 M^−1min^−1 | stability to assay conditions [3]: stable to the assay conditions employed

O=C(CCCCCCCCCOS(=O)(=O)c1ccc([N+](=O)[O-])cc1)NCCCCCNC(=O)CCCCC1SCC2NC(=O)NC21 (stereo not drawn) [Sulfonate 8, 10-((4-Nitrobenzenesulfonyl)oxo)-N-biotinamidopentyldecanamide]
specific (heat-sensitive) proteome reactivity (rat testis proteome): reacted specifically with a 55 kDa protein, as well as two additional proteins

CCCCCCCCS(=O)(=O)OCCCCCCCCCC(=O)NCCCCCNC(=O)CCCC[C@@H]1SC[C@@H]2NC(=O)N[C@@H]21 [Sulfonate 7, 10-((Octylsulfonyl)oxo)-N-biotinamidopentyldecanamide]
specific (heat-sensitive) proteome reactivity (rat testis proteome): All sulfonates except the octylsulfonate 7 labeled at least one member of the testis proteome in a heat-sensitive manner

COc1ccc(S(=O)(=O)OCCCCCCCCCC(=O)NCCCCCNC(=O)CCCCC2SCC3NC(=O)NC32)cc1 (stereo not drawn) [Sulfonate 4, 10-((4-Methoxybenzenesulfonyl)oxo)-N-biotinamidopentyldecanamide]
nonspecific (heat-insensitive) proteome reactivity (rat testis proteome): significant additional reactivity with the preheated proteome

B1: cALDH-I (Rattus norvegicus) (protein)
chain: MSSPAQPAVPAPLANLKIQHTKIFINNEWHDSVSGKKFPVLNPATEEVICHVEEGDKADVDKAVKAARQAFQIGSPWRTMDASERGRLLNKLADLMERDRLLLATIEAINGGKVFANAYLSDLGGSIKALKYCAGWADKIHGQTIPSDGDIFTFTRREPIGVCGQIIPWNFPLLMFIWKIGPALSCGNTVVVKPAEQTPLTALHMASLIKEAGFPPGVVNIVPGYGPTAGAAISSHMDVDKVAFTGSTQVGKLIKEAAGKSNLKRVTLELGGKSPCIVFADADLDIAVEFAHHGVFYHQGQCCVAASRIFVEESVYDEFVRKSVERAKKYVLGNPLTQGINQGPQIDKEQHDKILDLIESGKKEGAKLECGGGRWGNKGFFVQPTVFSNVTDEMRIAKEEIFGPVQQIMKFKSIDDVIKRANNTTYGLAAGVFTKDLDRAITVSSALQAGVVWVNCYMILSAQCPFGGFKMSGNGRELGEHGLYEYTELKTVAMKISQKNS
notes: made in house; host or cells: E. coli BL-21
Km [4]: 4.2 µM

B2: STI: Kunitz-type serine protease inhibitor, soybean trypsin inhibitor (protein, UniProt P01070 25-205, looked up)
Trypsin inhibitor A: DFVLDNEGNPLENGGTYYILSDITAFGGIRAAPTGNERCPLTVVQSRNELDKGIGTIISSPYRIRFIAEGHPLSLKFDSFAVIMLCVGIPTEWSVVEDLPEGPAVKIGENKDAMDGWFRLERVSDDEFNNYKLVFCPQQAEDDKCGDIGISIDHDDGTRRLVVSKNKPLVVQFQKLDKESL
FP-biotin labeling intensities in STI-treated sample (serine hydrolases): several, but not all FP-biotin reactive proteins showed significantly lower labeling intensities | FP-biotin labeling of trypsin preincubated with STI (trypsin): did not label
